Values of other authors, collected in patent publication US8338346B2, “Perfume compositions comprising functional perfume components” (The Procter & Gamble Company, priority 2008, dated 2012).

Tests used:
[1] = odor detection threshold; approximate reported values
[2] = approximate reported values; unit inferred

Vapor pressure [2] | SMILES | ODT [1]
 | C=C(C)C1CC=C(C)CC1 [D-Limonene, 1-methyl-4-isopropenyl-1-cyclohexene] | 204 ppb
0.05 mmHg | C=CC(C)(O)CCC=C(C)C (centres unmarked) [Linalool, 3-hydroxy-3,7-dimethyl-1,6 octadiene] | 22 ppb
0.11 mmHg | CC(=O)OCCCCCCC(C)C [Iso-Nonyl Acetate, iso-nonyl acetate] | 12 ppb
